Laboratory results published in ChEMBL document CHEMBL3045494, “Inhibitory effect and structureactivity relationship of some Biginelli-type pyrimidines against HSV-1” (Med Chem Res, 2013).
The source made the active and inactive calls. The calls are words filed in the database; no cut-off is given here.

Columns and labels:
Human alphaherpesvirus 1 [1] = test: Antiviral activity against Human herpesvirus 1 strain KOS infected Vero cells at 20 umol/L incubated at 4 hr post-infection measured after 68 hr by plaque reduction assay; type: functional, organism-based
Human alphaherpesvirus 1 [2] = test: Antiviral activity against Human herpesvirus 1 strain KOS infected Vero cells at 20 umol/L incubated at 2 hr post-infection measured after 70 hr by plaque reduction assay; type: functional, organism-based
Human alphaherpesvirus 1 [3] = test: Antiviral activity against Human herpesvirus 1 strain KOS infected Vero cells at 20 umol/L incubated for 2 hr prior to infection measured after 72 hr by plaque reduction assay; type: functional, organism-based
Human alphaherpesvirus 1 [4] = test: Antiviral activity against Human herpesvirus 1 strain KOS infected Vero cells at 20 umol/L incubated for 4 hr prior to infection measured after 72 hr by plaque reduction assay; type: functional, organism-based
[5] = Selectivity index, ratio of CC25 for African green monkey Vero cells to IC25 for Herpes simplex virus 1 KOS; type: toxicity, cell-based; details: read-out: Selectivity Index
[6] = Therapeutic index, ratio of CC50 for African green monkey Vero cells to IC50 for Herpes simplex virus 1 KOS; type: cell-based; details: read-out: Ratio CC50/IC50
[7] = (§1) Cytotoxicity against Chlorocebus aethiops (African green monkey) Vero cells after 72 hr by XTT assay; type: cell-based; details: chlorocebus sabaeus, Vero cells
Vero = test: as §1; type: cell-based; details: chlorocebus sabaeus, vero, 72 h
Human alphaherpesvirus 1 [8] = test: Antiviral activity against Human herpesvirus 1 strain KOS infected Vero cells after 72 hr by plaque reduction assay; type: functional, organism-based; details: Human alphaherpesvirus 1, KOS, Vero, 72 h; for IC50: read-out: IC50
Human alphaherpesvirus 1 [9] = test: Antiviral activity against Human herpesvirus 1 strain KOS infected Vero cells at 20 umol/L incubated immediately after infection for 72 hr by plaque reduction assay; type: functional, organism-based

SMILES: COC(=O)C1=C(C)NC(=O)NC1c1ccc(Br)cc1 (stereo not drawn)
- Activity (Human alphaherpesvirus 1 [1]): Active
- Activity (Human alphaherpesvirus 1 [2]): Active
- Activity (Human alphaherpesvirus 1 [3]): inactive
- Activity (Human alphaherpesvirus 1 [4]): inactive
- selectivity ratio [5]: 123
- selectivity ratio [6]: 111
- CC50 at 72 h [7]: 100 µM
- CC25 (Vero): 12.3 µM
- IC25 (Human alphaherpesvirus 1 [8]): 0.1 µM
- IC50 (Human alphaherpesvirus 1 [8]): 0.9 µM
- Activity (Human alphaherpesvirus 1 [9]): inactive

SMILES: COc1ccc(C2NC(=O)NC(C)=C2C(=O)Nc2ccccc2Cl)cc1 (stereo not drawn)
- selectivity ratio [5]: 25.1
- selectivity ratio [6]: > 1.5
- CC50 at 72 h [7]: > 100 µM
- CC25 (Vero): 17.6 µM
- IC25 (Human alphaherpesvirus 1 [8]): 0.7 µM
- IC50 (Human alphaherpesvirus 1 [8]): 63.6 µM

SMILES: CC1=C(C(=O)Nc2ccccc2Cl)C(C(C)c2ccccc2)NC(=O)N1 (stereo not drawn)
- selectivity ratio [5]: 0.07
- selectivity ratio [6]: < 1
- CC50 at 72 h [7]: 91.5 µM
- CC25 (Vero): 1.7 µM
- IC25 (Human alphaherpesvirus 1 [8]): 21.3 µM
- IC50 (Human alphaherpesvirus 1 [8]): > 100 µM

SMILES: CC1=C(C(=O)Nc2ccccc2Cl)C(c2cccs2)NC(=O)N1 (stereo not drawn)
- selectivity ratio [5]: 3.9
- selectivity ratio [6]: > 1.2
- CC50 at 72 h [7]: > 100 µM
- CC25 (Vero): 98.9 µM
- IC25 (Human alphaherpesvirus 1 [8]): 25.2 µM
- IC50 (Human alphaherpesvirus 1 [8]): 81.5 µM

SMILES: CC1=C(C(=O)NC2CCCCC2)C(c2ccccc2)NC(=O)N1 (stereo not drawn)
- selectivity ratio [5]: 38
- selectivity ratio [6]: > 1
- CC50 at 72 h [7]: > 100 µM
- CC25 (Vero): 7.6 µM
- IC25 (Human alphaherpesvirus 1 [8]): 0.2 µM
- IC50 (Human alphaherpesvirus 1 [8]): > 100 µM

SMILES: COc1cccc(C2NC(=O)NC(C)=C2C(=O)Nc2ccccc2Cl)c1 (stereo not drawn)
- selectivity ratio [5]: 5
- selectivity ratio [6]: > 1
- CC50 at 72 h [7]: > 100 µM
- CC25 (Vero): 45.6 µM
- IC25 (Human alphaherpesvirus 1 [8]): 9.1 µM
- IC50 (Human alphaherpesvirus 1 [8]): > 100 µM

SMILES: CC1=C(C(=O)Nc2cccc(Cl)c2)C(c2cnc(CS)n2NCc2ccccc2)NC(=O)N1 (stereo not drawn)
- selectivity ratio [5]: 1.8
- selectivity ratio [6]: > 1.4
- CC50 at 72 h [7]: > 100 µM
- CC25 (Vero): 100 µM
- IC25 (Human alphaherpesvirus 1 [8]): 53.8 µM
- IC50 (Human alphaherpesvirus 1 [8]): 67 µM

SMILES: CC1=C(C(=O)Nc2cccc(Cl)c2)C(c2cnc(CS)n2Nc2ccccc2)NC(=O)N1 (stereo not drawn)
- selectivity ratio [5]: 5.1
- selectivity ratio [6]: < 0.9
- CC50 at 72 h [7]: 98.6 µM
- CC25 (Vero): 71.1 µM
- IC25 (Human alphaherpesvirus 1 [8]): 13.7 µM
- IC50 (Human alphaherpesvirus 1 [8]): > 100 µM

SMILES: CC1=C(C(=O)Nc2ccc(F)cc2)C(c2ccccc2)NC(=O)N1 (stereo not drawn)
- selectivity ratio [5]: 48.6
- selectivity ratio [6]: > 1
- CC50 at 72 h [7]: > 100 µM
- CC25 (Vero): 43.8 µM
- IC25 (Human alphaherpesvirus 1 [8]): 0.9 µM
- IC50 (Human alphaherpesvirus 1 [8]): > 100 µM

SMILES: CC1=C(C(=O)Nc2ccccc2Cl)C(c2ccccc2Cl)NC(=S)N1 (stereo not drawn)
- selectivity ratio [5]: 35
- selectivity ratio [6]: > 1
- CC50 at 72 h [7]: > 100 µM
- CC25 (Vero): 24.5 µM
- IC25 (Human alphaherpesvirus 1 [8]): 0.7 µM
- IC50 (Human alphaherpesvirus 1 [8]): > 100 µM

SMILES: CC1=C(C(=O)OC(C)C)C(c2cccs2)NC(S)=N1 (stereo not drawn)
- selectivity ratio [5]: 0.6
- selectivity ratio [6]: 1.9
- CC50 at 72 h [7]: 53.9 µM
- CC25 (Vero): 5.7 µM
- IC25 (Human alphaherpesvirus 1 [8]): 8.5 µM
- IC50 (Human alphaherpesvirus 1 [8]): 28 µM

SMILES: CC1=C(C(=O)Nc2ccccn2)C(c2cccs2)NC(=O)N1 (stereo not drawn)
- selectivity ratio [5]: > 1
- selectivity ratio [6]: > 1
- CC50 at 72 h [7]: > 100 µM
- CC25 (Vero): > 100 µM
- IC25 (Human alphaherpesvirus 1 [8]): 97.7 µM
- IC50 (Human alphaherpesvirus 1 [8]): > 100 µM

SMILES: CCOC(=O)C1=C(C)NC(=S)NC1c1ccc(Br)cc1 (stereo not drawn)
- selectivity ratio [5]: 0.1
- selectivity ratio [6]: 0.31
- CC50 at 72 h [7]: 38.9 µM
- CC25 (Vero): 9.3 µM
- IC25 (Human alphaherpesvirus 1 [8]): 87.3 µM
- IC50 (Human alphaherpesvirus 1 [8]): 122 µM
